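Protocol summary: plate cells (96-well), add compound at 5 concentrations, incubate 48 h, interpolate endpoints linearly. GI50 = concentration required for 50% inhibition of growth.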 Calls of active or inactive are those of the source. No stated cut-off is given here; in the data, active = GI50 up to about 1.1 µM and inactive = higher.
Columns and labels:
Assay in all cases: growth of human tumour cells (NCI), 48 h
786-0 = tested on: 786-0
A498 = tested on: A498
A549 = tested on: A549
ACHN = tested on: ACHN
CAKI-1 = tested on: CAKI-1
CCRF-CEM = tested on: CCRF-CEM
COLO 205 = tested on: COLO 205
DLD-1 = tested on: DLD-1
DMS-114 = tested on: DMS-114
EKVX = tested on: EKVX
HCC 2998 = tested on: HCC 2998
HCT-116 = tested on: HCT-116
HCT-15 = tested on: HCT-15
HL-60 = tested on: HL-60
HOP-18 = tested on: HOP-18
HOP-62 = tested on: HOP-62
HOP-92 = tested on: HOP-92
HT-29 = tested on: HT-29
IGROV-1 = tested on: IGROV-1
K562 = tested on: K562
KM-20L2 = tested on: KM-20L2
KM12 = tested on: KM12
LOX IMVI = tested on: LOX IMVI
LXFL 529 = tested on: LXFL 529
M14 = tested on: M14
M19-MEL = tested on: M19-MEL
MOLT-4 = tested on: MOLT-4
Malme-3M = tested on: Malme-3M
NCI-H226 = tested on: NCI-H226
NCI-H23 = tested on: NCI-H23
NCI-H460 = tested on: NCI-H460
OVCAR-3 = tested on: OVCAR-3
OVCAR-4 = tested on: OVCAR-4
OVCAR-5 = tested on: OVCAR-5
OVCAR-8 = tested on: OVCAR-8
RPMI-8226 = tested on: RPMI-8226
RXF 393 = tested on: RXF 393
SF-268 = tested on: SF-268
SF-295 = tested on: SF-295
SF-539 = tested on: SF-539
SK-MEL-28 = tested on: SK-MEL-28
SK-MEL-5 = tested on: SK-MEL-5
SN12C = tested on: SN12C
SNB-19 = tested on: SNB-19
SNB-75 = tested on: SNB-75
SNB-78 = tested on: SNB-78
SR = tested on: SR
SW-620 = tested on: SW-620
TK-10 = tested on: TK-10
U-251 = tested on: U-251
UACC-257 = tested on: UACC-257
UACC-62 = tested on: UACC-62
XF498 = tested on: XF498
DMS-273 = tested on: DMS-273
NCI-H522 = tested on: NCI-H522
SK-MEL-2 = tested on: SK-MEL-2
SK-OV-3 = tested on: SK-OV-3
UO-31 = tested on: UO-31
RXF 631 = tested on: RXF 631

SMILES: O=C(Nc1ccc(Cl)cc1C(F)(F)F)C(=O)C1CCCS1(=O)=O (configuration not stated)
- GI50 (786-0): > 100 µM (inactive)
- GI50 (A498): > 100 µM (inactive)
- GI50 (A549): > 100 µM (inactive)
- GI50 (ACHN): > 100 µM (inactive)
- GI50 (CAKI-1): > 100 µM (inactive)
- GI50 (CCRF-CEM): > 100 µM (inactive)
- GI50 (COLO 205): > 100 µM (inactive)
- GI50 (DLD-1): > 100 µM (inactive)
- GI50 (DMS-114): > 100 µM (inactive)
- GI50 (EKVX): > 100 µM (inactive)
- GI50 (HCC 2998): > 100 µM (inactive)
- GI50 (HCT-116): > 100 µM (inactive)
- GI50 (HCT-15): > 100 µM
- GI50 (HL-60): > 100 µM (inactive)
- GI50 (HOP-18): > 100 µM (inactive)
- GI50 (HOP-62): > 100 µM (inactive)
- GI50 (HOP-92): > 10 µM (inactive)
- GI50 (HT-29): > 100 µM (inactive)
- GI50 (IGROV-1): > 10 µM (inactive)
- GI50 (K562): > 100 µM (inactive)
- GI50 (KM-20L2): > 100 µM (inactive)
- GI50 (KM12): > 100 µM (inactive)
- GI50 (LOX IMVI): > 100 µM (inactive)
- GI50 (LXFL 529): > 100 µM (inactive)
- GI50 (M14): > 100 µM (inactive)
- GI50 (M19-MEL): > 100 µM (inactive)
- GI50 (MOLT-4): > 100 µM (inactive)
- GI50 (Malme-3M): > 100 µM (inactive)
- GI50 (NCI-H226): > 100 µM (inactive)
- GI50 (NCI-H23): > 100 µM (inactive)
- GI50 (NCI-H460): > 100 µM (inactive)
- GI50 (OVCAR-3): > 100 µM (inactive)
- GI50 (OVCAR-4): > 100 µM (inactive)
- GI50 (OVCAR-5): > 100 µM (inactive)
- GI50 (OVCAR-8): > 100 µM (inactive)
- GI50 (RPMI-8226): > 100 µM (inactive)
- GI50 (RXF 393): > 100 µM (inactive)
- GI50 (SF-268): > 100 µM (inactive)
- GI50 (SF-295): > 100 µM (inactive)
- GI50 (SF-539): > 100 µM (inactive)
- GI50 (SK-MEL-28): > 100 µM (inactive)
- GI50 (SK-MEL-5): > 100 µM (inactive)
- GI50 (SN12C): > 100 µM (inactive)
- GI50 (SNB-19): > 100 µM (inactive)
- GI50 (SNB-75): > 100 µM (inactive)
- GI50 (SNB-78): > 100 µM (inactive)
- GI50 (SR): > 100 µM (inactive)
- GI50 (SW-620): > 10 µM (inactive)
- GI50 (TK-10): > 100 µM (inactive)
- GI50 (U-251): > 100 µM (inactive)
- GI50 (UACC-257): > 100 µM (inactive)
- GI50 (UACC-62): > 100 µM (inactive)
- GI50 (XF498): > 100 µM (inactive)

SMILES: O=C1c2ccccc2C(=O)c2sc(Nc3cccc(Cl)c3)nc21
- GI50 (786-0): 1.56 µM (inactive)
- GI50 (A498): 2.07 µM (inactive)
- GI50 (A549): 2.21 µM (inactive)
- GI50 (ACHN): 1.61 µM (inactive)
- GI50 (CAKI-1): 2.04 µM (inactive)
- GI50 (CCRF-CEM): 1.36 µM (inactive)
- GI50 (COLO 205): 5.38 µM (inactive)
- GI50 (DLD-1): 1.94 µM (inactive)
- GI50 (DMS-114): 1.36 µM (inactive)
- GI50 (DMS-273): 1.87 µM (inactive)
- GI50 (EKVX): 2.38 µM (inactive)
- GI50 (HCC 2998): 2.75 µM (inactive)
- GI50 (HCT-116): 1.82 µM (inactive)
- GI50 (HCT-15): 1.88 µM
- GI50 (HL-60): 0.172 µM (active)
- GI50 (HOP-18): 1.63 µM (inactive)
- GI50 (HOP-62): 1.82 µM (inactive)
- GI50 (HT-29): 3.34 µM (inactive)
- GI50 (IGROV-1): 2.07 µM (inactive)
- GI50 (K562): 1.57 µM (inactive)
- GI50 (KM-20L2): 7.45 µM (inactive)
- GI50 (KM12): 2.03 µM (inactive)
- GI50 (LOX IMVI): 1.27 µM (inactive)
- GI50 (LXFL 529): 1.48 µM (inactive)
- GI50 (M14): 1.82 µM (inactive)
- GI50 (M19-MEL): 0.322 µM (active)
- GI50 (MOLT-4): 0.492 µM (active)
- GI50 (Malme-3M): 1.52 µM (inactive)
- GI50 (NCI-H226): 3.96 µM (inactive)
- GI50 (NCI-H23): 1.49 µM (inactive)
- GI50 (NCI-H460): 2.07 µM (inactive)
- GI50 (NCI-H522): 1.45 µM (inactive)
- GI50 (OVCAR-3): 1.12 µM (active)
- GI50 (OVCAR-4): 1.45 µM (inactive)
- GI50 (OVCAR-5): 2.22 µM (inactive)
- GI50 (OVCAR-8): 1.6 µM (inactive)
- GI50 (RPMI-8226): 0.966 µM (active)
- GI50 (RXF 393): 1.45 µM (inactive)
- GI50 (SF-268): 2.01 µM (inactive)
- GI50 (SF-295): 1.62 µM (inactive)
- GI50 (SF-539): 1.93 µM (inactive)
- GI50 (SK-MEL-28): 1.81 µM (inactive)
- GI50 (SK-MEL-2): 1.79 µM (inactive)
- GI50 (SK-MEL-5): 1.56 µM (inactive)
- GI50 (SK-OV-3): 8.11 µM (inactive)
- GI50 (SN12C): 1.51 µM (inactive)
- GI50 (SNB-19): 2.07 µM (inactive)
- GI50 (SNB-75): 1.82 µM (inactive)
- GI50 (SR): 2.34 µM (inactive)
- GI50 (SW-620): 0.802 µM (active)
- GI50 (TK-10): 2.88 µM (inactive)
- GI50 (U-251): 1.31 µM (inactive)
- GI50 (UACC-257): 1.52 µM (inactive)
- GI50 (UACC-62): 1.73 µM (inactive)
- GI50 (UO-31): 2.3 µM (inactive)
- GI50 (XF498): 1.73 µM (inactive)

SMILES: O=C(OC1CCC(=C2SCCCS2)[C@H]1C1SCCCS1)c1ccccc1 (some centres not stated)
- GI50 (786-0): > 100 µM (inactive)
- GI50 (A498): > 100 µM (inactive)
- GI50 (A549): > 100 µM (inactive)
- GI50 (ACHN): > 100 µM (inactive)
- GI50 (CCRF-CEM): > 100 µM (inactive)
- GI50 (COLO 205): > 100 µM (inactive)
- GI50 (DLD-1): > 100 µM (inactive)
- GI50 (DMS-114): 89.5 µM (inactive)
- GI50 (DMS-273): > 100 µM (inactive)
- GI50 (EKVX): > 100 µM (inactive)
- GI50 (HCC 2998): > 100 µM (inactive)
- GI50 (HCT-116): 88.3 µM (inactive)
- GI50 (HCT-15): > 100 µM
- GI50 (HL-60): 52.7 µM (inactive)
- GI50 (HOP-62): > 100 µM (inactive)
- GI50 (HOP-92): 16.9 µM (inactive)
- GI50 (HT-29): > 100 µM (inactive)
- GI50 (IGROV-1): > 100 µM (inactive)
- GI50 (K562): 75 µM (inactive)
- GI50 (KM-20L2): > 100 µM (inactive)
- GI50 (KM12): > 100 µM (inactive)
- GI50 (LOX IMVI): > 100 µM (inactive)
- GI50 (LXFL 529): > 100 µM (inactive)
- GI50 (M14): > 100 µM (inactive)
- GI50 (M19-MEL): > 100 µM (inactive)
- GI50 (MOLT-4): > 100 µM (inactive)
- GI50 (Malme-3M): 94.6 µM (inactive)
- GI50 (NCI-H226): 30.5 µM (inactive)
- GI50 (NCI-H23): > 100 µM (inactive)
- GI50 (NCI-H460): > 100 µM (inactive)
- GI50 (OVCAR-3): > 100 µM (inactive)
- GI50 (OVCAR-4): 84.5 µM (inactive)
- GI50 (OVCAR-8): > 100 µM (inactive)
- GI50 (RPMI-8226): 86.3 µM (inactive)
- GI50 (RXF 393): 67.1 µM (inactive)
- GI50 (RXF 631): > 100 µM (inactive)
- GI50 (SF-295): > 100 µM (inactive)
- GI50 (SF-539): > 100 µM (inactive)
- GI50 (SK-MEL-2): > 100 µM (inactive)
- GI50 (SK-OV-3): > 100 µM (inactive)
- GI50 (SN12C): > 100 µM (inactive)
- GI50 (SNB-19): > 100 µM (inactive)
- GI50 (SW-620): > 100 µM (inactive)
- GI50 (TK-10): > 100 µM (inactive)
- GI50 (U-251): > 100 µM (inactive)
- GI50 (UACC-257): > 100 µM (inactive)
- GI50 (UACC-62): 45.4 µM (inactive)
- GI50 (UO-31): 24.5 µM (inactive)

Reference: ChEMBL document CHEMBL1201862, “PubChem BioAssay data set” (2004)
